Assay results: ChEMBL document CHEMBL5104093, “A comprehensive review on β-lapachone: Mechanisms, structural modifications, and therapeutic potentials” (Eur J Med Chem, 2021)
Values after ≈ are worked out from the molar mass of the structure shown.

How the values were obtained:
[1] = test system: Mycobacterium tuberculosis; test: Antimycobacterial activity against Mycobacterium tuberculosis H37Rv ATCC 27294 assessed as bacterial growth inhibition incubated for 5 days by Alamar blue reagent based assay; type: functional; conditions: ATCC 27294, 120 h, time 5 day
Sporothrix schenckii [2] = test: Antifungal activity against Sporothrix schenckii assessed as fungal growth inhibition incubated for 48 hrs by CLSI-based broth microdilution assay; type: functional
Sporothrix [3] = test: Antifungal activity against Sporothrix brasiliensis assessed as fungal growth inhibition incubated for 48 hrs by CLSI-based broth microdilution assay; type: functional
Sporothrix schenckii [4] = test: Antifungal activity against Sporothrix schenckii assessed as fungal growth inhibition incubated for 48 hrs in presence of itraconazole by CLSI-based broth microdilution assay; type: functional
Sporothrix [5] = test: Antifungal activity against Sporothrix brasiliensis assessed as fungal growth inhibition incubated for 48 hrs in presence of itraconazole by CLSI-based broth microdilution assay; type: functional
HCT-116 [6] = test: Cytotoxicity against human HCT-116 cells assessed as reduction in cell viability incubated for 72 hrs by MTT assay; type: functional, cell-based; conditions: HCT-116, 72 h
PC-3 = test: Cytotoxicity against human PC-3 cells assessed as reduction in cell viability incubated for 72 hrs by MTT assay; type: functional, cell-based; conditions: PC-3, 72 h
SF-295 = test: Cytotoxicity against human SF-295 cells assessed as reduction in cell viability incubated for 72 hrs by MTT assay; type: functional, cell-based; conditions: SF-295, 72 h
K562 [7] = test: Cytotoxicity against human K562 cells assessed as reduction in cell viability incubated for 72 hrs by MTT assay; type: functional, cell-based; conditions: K562, 72 h
[8] = Selectivity index, ratio of IC50 for human PBMC cells to IC50 for human HCT-116 cells; type: toxicity; conditions: PBMC cells versus HCT-116 cells, read-out: Ratio IC50
[9] = Selectivity index, ratio of IC50 for human PBMC cells to IC50 for human K562 cells; type: toxicity; conditions: PBMC cells versus K562 cells, read-out: Ratio IC50
Staphylococcus aureus = test: Antibacterial activity against Staphylococcus aureus 2065 MA assessed as diameter of bacterial growth inhibition by Mueller-Hinton broth based assay; type: functional
MCF7 = test: Cytotoxicity against human MCF7 cells assessed as reduction in cell viability incubated for 72 hrs by MTT assay; type: functional, cell-based; conditions: MCF7, 72 h
[10] = Cytotoxicity against mouse L929 cells assessed as reduction in cell viability incubated for 72 hrs by MTT assay; type: toxicity, cell-based
SNB-19 = test: Cytotoxicity against human SNB-19 cells assessed as reduction in cell viability incubated for 72 hrs by MTT assay; type: functional, cell-based; conditions: SNB-19, 72 h
B16-F10 = test: Cytotoxicity against mouse B16-F10 cells assessed as reduction in cell viability incubated for 72 hrs by MTT assay; type: functional, cell-based; conditions: B16-F10, 72 h
HSC-3 = test: Cytotoxicity against human HSC-3 cells assessed as reduction in cell viability incubated for 72 hrs by alamar blue assay; type: functional, cell-based; conditions: HSC-3, 72 h
SCC-4 = test: Cytotoxicity against human SCC-4 cells assessed as reduction in cell viability incubated for 72 hrs by alamar blue assay; type: functional, cell-based; conditions: SCC-4, 72 h
SCC-9 = test: Cytotoxicity against human SCC-9 cells assessed as reduction in cell viability incubated for 72 hrs by alamar blue assay; type: functional, cell-based; conditions: SCC-9, 72 h
SCC-15 = test: Cytotoxicity against human SCC-15 cells assessed as reduction in cell viability incubated for 72 hrs by alamar blue assay; type: functional, cell-based; conditions: SCC-15, 72 h
SCC-25 = test: Cytotoxicity against human SCC-25 cells assessed as reduction in cell viability incubated for 72 hrs by alamar blue assay; type: functional, cell-based; conditions: SCC-25, 72 h
HepG2 = test: Cytotoxicity against human HepG2 cells assessed as reduction in cell viability incubated for 72 hrs by alamar blue assay; type: functional, cell-based; conditions: HepG2, 72 h
HL-60 [11] = test: Cytotoxicity against human HL-60 cells assessed as reduction in cell viability incubated for 72 hrs by alamar blue assay; type: functional, cell-based; conditions: HL-60, 72 h
K562 [12] = test: Cytotoxicity against human K562 cells assessed as reduction in cell viability incubated for 72 hrs by alamar blue assay; type: functional, cell-based; conditions: K562, 72 h
[13] = Cytotoxicity against human AGP01 cells assessed as reduction in cell viability incubated for 72 hrs by alamar blue assay; type: functional, cell-based; conditions: AGP01, 72 h
[14] = Cytotoxicity against human ACP02 cells assessed as reduction in cell viability incubated for 72 hrs by alamar blue assay; type: functional, cell-based; conditions: ACP02, 72 h
[15] = Cytotoxicity against human ACP03 cells assessed as reduction in cell viability incubated for 72 hrs by alamar blue assay; type: functional, cell-based; conditions: ACP03, 72 h
HT-29 = test: Cytotoxicity against human HT-29 cells assessed as reduction in cell viability incubated for 72 hrs by alamar blue assay; type: functional, cell-based; conditions: HT-29, 72 h
HCT-116 [16] = test: Cytotoxicity against human HCT-116 cells assessed as reduction in cell viability incubated for 72 hrs by alamar blue assay; type: functional, cell-based; conditions: HCT-116, 72 h
[17] = Selectivity index, ratio of IC50 for human PBMC cells to IC50 for human HL-60 cells; type: toxicity; conditions: PBMC cells versus HL-60 cells, read-out: Ratio IC50
NCI-H460 = test: Cytotoxicity against human NCI-H460 cells assessed as reduction in cell viability incubated for 72 hrs by MTT assay; type: functional, cell-based; conditions: NCI-H460, 72 h
HL-60 [18] = test: Cytotoxicity against human HL-60 cells assessed as reduction in cell viability incubated for 72 hrs by MTT assay; type: functional, cell-based; conditions: HL-60, 72 h
MDA-MB-435 = test: Cytotoxicity against human MDA-MB-435 cells assessed as reduction in cell viability incubated for 72 hrs by MTT assay; type: functional, cell-based; conditions: MDA-MB-435, 72 h
HCT-8 = test: Cytotoxicity against human HCT-8 cells assessed as reduction in cell viability incubated for 72 hrs by MTT assay; type: functional, cell-based; conditions: HCT-8, 72 h
B16 = test: Cytotoxicity against mouse B16 cells assessed as reduction in cell viability incubated for 72 hrs by MTT assay; type: functional, cell-based; conditions: B16, 72 h
Enterococcus faecalis = test: Antibacterial activity against Enterococcus faecalis clinical isolates assessed as bacterial growth inhibition by broth macrodilution method; type: functional
Trypanosoma cruzi = test: Antitrypanosomal activity against bloodstream form of Trypanosoma cruzi Y trypomastigotes infected in Swiss Webster mouse assessed as reduction in viable parasite in blood incubated for 24 hrs by Neubauer counting chamber based light microscopic analysis; type: functional, organism-based

Cc1ccc(C2CCC3=C(O2)c2ccccc2C(=O)C3=O)cc1 (centres undefined)
MIC [1]: 1.25 µg/mL (≈ 4.11 µM)

Cc1ccc(C2CC(c3ccccc3)C3=C(O2)c2ccccc2C(=O)C3=O)cc1 (centres undefined)
MIC [1]: 3.12 µg/mL (≈ 8.2 µM)

O=C1C(=O)c2ccccc2C2=C1CC(c1ccccc1)O2 (centres undefined)
MIC (Sporothrix schenckii [2]): 2 µM (≈ 0.553 µg/mL)
MIC (Sporothrix [3]): 2 µM (≈ 0.553 µg/mL)
MIC (Sporothrix schenckii [4]): 0.06 µM
MIC (Sporothrix [5]): 0.03 µM

CC1(c2ccccc2)CC2=C(O1)c1ccccc1C(=O)C2=O (centres undefined)
MIC (Sporothrix schenckii [2]): 2 µM (≈ 0.581 µg/mL)
MIC (Sporothrix [3]): 2 µM (≈ 0.581 µg/mL)
MIC (Sporothrix schenckii [4]): 0.06 µM
MIC (Sporothrix [5]): 0.03 µM

CC1(C)OC2=C(C(=O)C(=O)c3ccccc32)C1Sc1ccccc1 (centres undefined)
IC50 (HCT-116 [6]): 900 nM
IC50 (PC-3): 900 nM
IC50 (SF-295): 900 nM
IC50 (K562 [7]): 900 nM
selectivity ratio [8]: 2.96
selectivity ratio [9]: 2.11
zone diameter (Staphylococcus aureus): 11 mm

O=C1C(=O)c2ccccc2C2=C1CCC(c1ccccc1)O2 (centres undefined)
MIC [1]: 2.5 µg/mL (≈ 8.61 µM)

CC1(C)OC2=C(C(=O)C(=O)c3ccccc32)C1n1cc(C[Se]c2ccccc2)nn1 (centres undefined)
IC50 (MCF7): 1060 nM
IC50 (HCT-116 [6]): 1060 nM
IC50 at 72 h [10]: 1060 nM
IC50 (PC-3): 1060 nM
IC50 (SNB-19): 1060 nM
IC50 (B16-F10): 1060 nM

CC1(C)OC2=C(CC1I)C(=O)C(=O)c1ccccc12 (centres undefined)
IC50 (HSC-3): 20 nM
IC50 (SCC-4): 20 nM
IC50 (SCC-9): 20 nM
IC50 (SCC-15): 20 nM
IC50 (SCC-25): 20 nM
IC50 (HepG2): 20 nM
IC50 (HL-60 [11]): 20 nM
IC50 (K562 [12]): 20 nM
IC50 [13]: 20 nM
IC50 [14]: 20 nM
IC50 [15]: 20 nM
IC50 (HT-29): 20 nM
IC50 (HCT-116 [16]): 20 nM
selectivity ratio [17]: 1690

CC1(C)OC2=C(C(=O)C(=O)c3ccccc32)[C@H](n2cc(C[Se]c3ccc(F)cc3)nn2)[C@H]1Br
IC50 (PC-3): 1060 nM
IC50 (NCI-H460): 1320 nM

CC1(C)OC2=C(C(=O)C(=O)c3ccccc32)C1n1cc(C2(O)CCCCC2)nn1 (centres undefined)
IC50 (HL-60 [18]): 430 nM
IC50 (PC-3): 430 nM
IC50 (SF-295): 430 nM
IC50 (MDA-MB-435): 430 nM
IC50 (HCT-8): 430 nM
IC50 (B16): 430 nM
MIC (Enterococcus faecalis): 16 µg/mL (≈ 40.7 µM)

CC1(C)OC2=C(C(=O)C(=O)c3ccccc32)C1n1cc(-c2ccccc2)nn1 (centres undefined)
IC50 (HL-60 [18]): 1210 nM
IC50 (PC-3): < 1210 nM
IC50 (SF-295): < 1210 nM
IC50 (MDA-MB-435): < 1210 nM
IC50 (HCT-8): < 1210 nM
IC50 (B16): < 1210 nM
MIC (Enterococcus faecalis): 8 µg/mL (≈ 21.5 µM)

CC1(C)OC2=C(CC1[Se]c1ccc(F)cc1)C(=O)C(=O)c1ccccc12 (centres undefined)
IC50 (MCF7): 950 nM
IC50 (HCT-116 [6]): 950 nM
IC50 (PC-3): 950 nM
IC50 (Trypanosoma cruzi): 38300 nM
IC50 (SNB-19): 950 nM
IC50 (B16-F10): 950 nM

O=C1C(=O)c2ccccc2C2=C1CC(C[Se]c1cccs1)O2 (centres undefined)
IC50 (MCF7): 1060 nM
IC50 (HCT-116 [6]): 1060 nM
IC50 at 72 h [10]: 1060 nM
IC50 (PC-3): 1060 nM
IC50 (SNB-19): 1060 nM
IC50 (B16-F10): 1060 nM

O=C(N[C@H](CO)[C@H](O)c1ccc([N+](=O)[O-])cc1)C(Cl)Cl [CHLORAMPHENICOL]
MIC (Enterococcus faecalis): 12 µg/mL (≈ 37.1 µM)

CCC(C)n1ncn(-c2ccc(N3CCN(c4ccc(OCC5COC(Cn6cncn6)(c6ccc(Cl)cc6Cl)O5)cc4)CC3)cc2)c1=O (centres undefined) [ITRACONAZOLE]
MIC (Sporothrix schenckii [2]): 0.125 µM (≈ 0.0882 µg/mL)
MIC (Sporothrix [3]): 0.125 µM (≈ 0.0882 µg/mL)
